In US20060270638A1 (Wyeth, priority 2005, published 2006):
“Also recorded” adds a separate entry of the source.

Tests used:
[1] = for plasma concentrations following tigecycline coadministration: versus warfarin 25 mg alone, FIG. 1, FIG. 2; for increase of exposure (AUC): warfarin given with a therapeutic regimen of tigecycline
Procedure: (§1) This is an open-label, nonrandomized, inpatient/outpatient, 2-period, 2-treatment study performed with healthy subjects at a single investigational site.
The tubes are centrifuged within 15 minutes of collection at approximately 1000 g for about 10 minutes. The separated plasma is then transferred to a watertight, labeled polypropylene tube and stored frozen in an upright position at −70° C. or colder until shipped.
The apparent terminal-phase disposition rate constant (λz) is estimated by a log-linear regression of the last 2 to 5 observed serum concentrations that are determined to be in the log-linear elimination phase by visual inspection. […] The area under the concentration-time curve (AUCT) to the last observable concentration (CT) at time T is calculated by using the log-trapezoidal rule for decreasing concentrations and the linear-trapezoidal rule for increasing concentrations, and the total AUC is estimated by AUC=AUCT+CT/λz. The oral-dose clearance (Cl/F) is calculated as dose/AUC, and the apparent terminal-phase volume of distribution (Vz/F) is estimated as Vz/F═[Cl/F]/λz.

[2] = Safety in healthy subjects of the drug interaction study; format: in vivo, human (healthy subjects); settings: single 25-mg oral warfarin alone, multiple 50-mg IV tigecycline, and combined
Text: as §1

[3] = system: international normalized ratio (INR); settings: in vivo; cited from earlier work
[4] = Tigecycline steady-state serum pharmacokinetics, alone and with warfarin; format: in vivo, human (healthy subjects)
Procedure: Blood tubes for tigecycline analysis are placed immediately on ice until a clot forms.
Thus, the peak concentration (Cmax) and the time to peak concentration (tmax) are taken directly from the observed data. […] Systemic clearance (Cl) is calculated as dose/AUC, and it is presented both corrected and uncorrected for body weight.

[5] = single 25-mg oral dose of warfarin, Mean ± SD
[6] = combination versus warfarin alone

CC(=O)CC(c1ccccc1)c1c(O)c2ccccc2oc1=O (racemic) [Warfarin, 3-(α-acetonylbenzyl)-4-hydroxycoumarin]
R-warfarin AUC ([1]; human, in vivo, po): 73 ± 18 µg·h/mL
R-warfarin Cl/F ([1]; human, in vivo, po): 0.0717 ± 0.013 mL/min/kg
S-warfarin AUC ([1]; human, in vivo, po): 47 ± 18 µg·h/mL
S-warfarin Cl/F ([1]; human, in vivo, po): 0.117 ± 0.0317 mL/min/kg
INR AUC0-[…] (prothrombin time (INR); [5]): 216 ± 14 h
INRmax (prothrombin time (INR); [5]): 1.8 ± 0.3
tmax (time to maximum INR value) (prothrombin time (INR); [5]): 1800 ± 540 min
safety-related concerns [2]: No safety-related concerns

CN(C)c1ccc(O)c2c1C[C@H]1C[C@H]3[C@H](N(C)C)C(O)=C(C(N)=O)C(=O)[C@@]3(O)C(O)=C1C2=O [minocycline]
compatibility with warfarin [3]: demonstrated incompatibility

CC(=O)C[C@H](c1ccccc1)c1c(O)c2ccccc2oc1=O [R-warfarin]
plasma concentrations following tigecycline coadministration [1]: higher
increase of exposure (AUC) [1]: 68%

CC(=O)C[C@@H](c1ccccc1)c1c(O)c2ccccc2oc1=O [S-warfarin]
plasma concentrations following tigecycline coadministration [1]: higher
increase of exposure (AUC) [1]: 29%

CN(C)c1cc(NC(=O)CNC(C)(C)C)c(O)c2c1C[C@H]1C[C@H]3[C@H](N(C)C)C(O)=C(C(N)=O)C(=O)[C@@]3(O)C(O)=C1C2=O [Tigecycline, (4S,4aS,5aR,12aS)-9-[2-(tert-butylamino)acetamido]-4,7-bis(dimethylamino)-1,4,4a,5,5a,6,11,12a-octahydro-3,10,12,12a-tetrahydroxy-1,11-dioxo-2-naphthacenecarboxamide]
effect on oral-dose clearance of R-warfarin and S-warfarin ([1]; coadministration of the therapeutic regimen of tigecycline): significantly decreased
mean steady-state systemic clearance and exposure (Cmax, C12h, AUC) versus monotherapy mean values ([4]; following coadministration of warfarin): ≤ 10%
Tmax ([4]; human, intravenous, 50 mg, tigecycline in serum, steady state, Mean ± SD): 30 min
AUC(0-t) ([4]; human, intravenous, 50 mg, tigecycline in serum, steady state, Mean ± SD, read-out: AUC0-12 h): 2.1 ± 0.514 µg·h/mL
concentration at 12 h ([4]; human, intravenous, 50 mg, tigecycline in serum, steady state, Mean ± SD, read-out: C12 h): 0.109 ± 0.028 µg/mL
Cmax ([4]; human, tigecycline in serum, steady state, 50 mg IV every 12 h, Mean ± SD): 0.886 ± 0.202 µg/mL
systemic clearance ([4]; tigecycline intravenous clearance, steady state, Mean ± SD): 5.17 ± 1.2 mL/min/kg
mean INR AUC0-[…] following the combination treatment (prothrombin time (INR); [6]): unchanged
mean INRmax lower following the combination treatment (prothrombin time (INR); [6]): 10%
effect on warfarin's anticoagulant profile (measured by INR) (prothrombin time (INR); therapeutic regimen of tigecycline with warfarin): does not significantly alter; also recorded: did not significantly alter
safety-related concerns [2]: No safety-related concerns
